Data on nine molecules can be found in ChEMBL document CHEMBL1157976, “Iridoid constituents of Tarenna attenuata” (J Nat Prod, 2006).

Test [1] relates to PC-12. Description: Antioxidant activity against H2O2-induced impairment of rat PC12 cells apoptosis at 0.4 to 50 uM. Format: functional, cell-based.
The subject of test [2] is PC-12. Description: Cytotoxicity against rat PC12 cells at 0.4 to 50 uM. Format: functional, cell-based.

Activity calls are given as the source filed them. The calls are words filed in the database; no cut-off is given here.

As to `COc1cc(/C=C/C(=O)OC[C@H]2O[C@@H](O[C@@H]3OC=C(C(=O)O)[C@H]4CC=C(C(=O)O)[C@@H]34)[C@H](O)[C@@H](O)[C@@H]2O)ccc1O`, the result in test [1] and in test [2] was inactive.

With `O=C(O)C1=CC[C@@H]2C(C(=O)O)=CO[C@@H](O[C@@H]3O[C@H](COC(=O)c4ccccc4)[C@@H](O)[C@H](O)[C@H]3O)[C@H]12`, the result in test [1] and in test [2] was inactive.

Take `COc1cc(/C=C/C(=O)O[C@H]2[C@H](O)[C@@H](O)[C@H](O[C@@H]3OC=C(C(=O)O)[C@H]4CC=C(C(=O)O)[C@@H]34)O[C@@H]2CO)ccc1O`: the result in test [1] and in test [2] was inactive.

Regarding `COc1cc(C(=O)OC[C@H]2O[C@@H](O[C@@H]3OC=C(C(=O)O)[C@H]4CC=C(C(=O)O)[C@@H]34)[C@H](O)[C@@H](O)[C@@H]2O)cc(OC)c1O`, the outcome in test [1] and in test [2] was inactive.

For the molecule `O=C(O)C1=CC[C@@H]2C(C(=O)O)=CO[C@@H](O[C@@H]3O[C@H](CO)[C@@H](O)[C@H](O)[C@H]3O)[C@H]12`, the result in test [1] and in test [2] was inactive.

In the case of `O=C(/C=C/c1ccccc1)OC[C@H]1O[C@@H](O[C@@H]2OC=C(C(=O)O)[C@H]3CC=C(C(=O)O)[C@@H]23)[C@H](O)[C@@H](O)[C@@H]1O`, the result in test [1] and in test [2] was inactive.

As to `COC(=O)C1=CC[C@@H]2C(C(=O)O)=CO[C@@H](O[C@@H]3O[C@H](CO)[C@@H](O)[C@H](O)[C@H]3O)[C@H]12`, the result in test [1] and in test [2] was inactive.

Consider `COc1cc(C(=O)O[C@@H]2[C@@H](O)[C@H](O[C@@H]3OC=C(C(=O)O)[C@H]4CC=C(C(=O)O)[C@@H]34)O[C@H](CO)[C@H]2O)ccc1O`, for which the result in test [1] and in test [2] was inactive.

As for `COc1cc(C(=O)OC[C@H]2O[C@@H](O[C@@H]3OC=C(C(=O)O)[C@H]4CC=C(C(=O)O)[C@@H]34)[C@H](O)[C@@H](O)[C@@H]2O)ccc1O`, the outcome in test [1] and in test [2] was inactive.
